In patent US20120190666A1, “Heteroaryl Compounds as PIKK Inhibitors” (Amgen Inc., priority 2009, published 2012):

How the values were obtained:
[1] = target: T1, PI3Kα (Homo sapiens, UniProt P42336); experiment: In vitro PI3K AlphaScreen assay, PI3Kα; assay type: biochemical; details: PI(4,5)P2 substrate, 20 minutes at room temperature, read-out: P13Kalpha IC50 um
T1 construct: Full length p110 subunits of PI3K α, β and δ, N-terminally labeled with polyHis tag; polyHis (N); made in house; host or cells: Sf9 insect cells (baculovirus)
T1 sequence (P42336 whole entry): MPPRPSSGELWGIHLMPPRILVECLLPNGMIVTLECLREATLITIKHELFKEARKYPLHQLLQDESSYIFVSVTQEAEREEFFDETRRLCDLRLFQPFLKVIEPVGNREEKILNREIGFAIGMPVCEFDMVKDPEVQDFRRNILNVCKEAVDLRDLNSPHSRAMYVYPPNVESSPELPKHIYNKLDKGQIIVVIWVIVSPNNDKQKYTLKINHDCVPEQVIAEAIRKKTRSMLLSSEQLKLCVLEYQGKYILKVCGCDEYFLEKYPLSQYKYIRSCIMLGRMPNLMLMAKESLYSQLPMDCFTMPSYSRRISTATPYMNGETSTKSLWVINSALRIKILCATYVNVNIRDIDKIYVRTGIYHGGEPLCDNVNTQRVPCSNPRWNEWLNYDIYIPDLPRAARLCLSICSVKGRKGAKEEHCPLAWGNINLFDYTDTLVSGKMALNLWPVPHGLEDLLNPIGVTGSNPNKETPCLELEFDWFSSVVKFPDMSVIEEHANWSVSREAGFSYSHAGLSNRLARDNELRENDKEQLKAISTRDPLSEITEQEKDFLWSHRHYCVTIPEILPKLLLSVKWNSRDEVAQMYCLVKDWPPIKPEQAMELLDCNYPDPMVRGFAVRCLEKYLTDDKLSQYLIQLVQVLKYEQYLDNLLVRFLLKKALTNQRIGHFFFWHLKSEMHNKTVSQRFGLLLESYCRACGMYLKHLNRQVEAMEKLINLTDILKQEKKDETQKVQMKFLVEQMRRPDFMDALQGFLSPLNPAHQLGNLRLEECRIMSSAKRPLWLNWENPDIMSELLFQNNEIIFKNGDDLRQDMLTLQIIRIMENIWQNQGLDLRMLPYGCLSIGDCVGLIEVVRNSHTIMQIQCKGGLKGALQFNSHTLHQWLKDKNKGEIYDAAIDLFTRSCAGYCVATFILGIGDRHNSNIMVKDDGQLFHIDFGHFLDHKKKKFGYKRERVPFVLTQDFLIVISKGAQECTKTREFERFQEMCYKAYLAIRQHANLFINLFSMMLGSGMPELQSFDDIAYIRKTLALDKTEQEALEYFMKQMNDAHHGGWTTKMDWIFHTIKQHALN
T1 sequence (P27986 whole entry partner): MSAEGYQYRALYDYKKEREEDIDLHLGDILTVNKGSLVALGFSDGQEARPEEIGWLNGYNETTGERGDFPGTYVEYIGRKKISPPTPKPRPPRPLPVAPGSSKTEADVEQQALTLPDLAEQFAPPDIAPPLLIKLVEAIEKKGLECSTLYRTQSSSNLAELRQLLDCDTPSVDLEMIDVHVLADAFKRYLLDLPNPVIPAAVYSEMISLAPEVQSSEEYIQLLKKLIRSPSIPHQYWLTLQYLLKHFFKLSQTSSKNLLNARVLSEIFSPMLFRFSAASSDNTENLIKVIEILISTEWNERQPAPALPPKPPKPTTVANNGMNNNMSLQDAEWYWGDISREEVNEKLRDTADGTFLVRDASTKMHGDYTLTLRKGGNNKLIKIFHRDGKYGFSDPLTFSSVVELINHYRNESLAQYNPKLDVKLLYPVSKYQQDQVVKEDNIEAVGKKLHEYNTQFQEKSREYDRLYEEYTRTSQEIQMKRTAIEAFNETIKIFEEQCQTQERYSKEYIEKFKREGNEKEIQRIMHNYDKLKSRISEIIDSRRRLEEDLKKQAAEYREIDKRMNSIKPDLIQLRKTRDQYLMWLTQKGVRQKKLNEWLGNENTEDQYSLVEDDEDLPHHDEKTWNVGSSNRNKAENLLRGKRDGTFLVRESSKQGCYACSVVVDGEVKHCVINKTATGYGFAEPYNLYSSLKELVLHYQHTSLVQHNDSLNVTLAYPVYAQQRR
Protocol: The PI3K AlphaScreen® assay (PerkinElmer, Waltham, Mass.) measures the activity of a panel of four phosphoinositide 3-kinases: PI3Kα, PI3KIβ, PI3Kγ, and PI3Kδ. Each of these enzymes phosphorylates the 3′-hydroxyl group on phosphatidylinositiol (4,5)-bisphosphate (PIP2) to produce phosphatidylinositol (3,4,5)-trisphosphate (PIP3). This phosphorylation activity is measured using a GST-tagged PIP3 binding protein (Echelon Biosciences, Salt Lake City, Utah), an anti-GST-tagged Acceptor bead, and streptavidin-Donor bead. The interaction of biotinylated-PIP3 analog (IP4) and the PIP3 binding protein brings both Acceptor and Donor beads together producing, upon excitation of the Donor beads at 680 nm, a singlet oxygen species leading to the luminescent AlphaScreen® signal. When PIP3 is produced via phosphorylation of PIP2 by a PI3K, PIP3 competes with biotinylated-PIP3 analog (IP4) for binding to the PIP3 binding protein. In the absence of this interaction, proximity of the Donor and Acceptor beads is decreased, producing a loss of luminescent signal which is […] to PI3K activity. […] The enzyme reaction buffer is made using sterile water (Baxter, Deerfield, Ill.) and 50 mM Tris HCl pH 7, 14 mM MgCl2, 2 mM sodium cholate, and 100 mM NaCl. 2 mM DTT is added fresh the day of the experiment. The AlphaScreen® reaction buffer is made using sterile water and 10 mM Tris HCl pH 7.5, 150 mM NaCl, 0.10% Tween 20, and 30 mM EDTA. 1 mM DTT is added fresh the day of the experiment. The source plates for this assay are 384-well Greiner clear polypropylene plates containing test compounds at 5 mM and diluted 1:2 over 22 points. Columns 23 and 24 contain only DMSO as these are designated for positive and negative controls. Source plates are replicated into 384-well Optiplates (PerkinElmer, Waltham, Mass.), 0.5 μL/well, to make assay-ready plates. The different PI3K isoforms are each diluted in enzyme reaction buffer to 2× working solutions. PI3Kα is diluted to 1.6 nM, PI3Kβ is diluted to 0.8 nM, PI3Kγ is diluted to 15 nM, and PI3Kδ is diluted to 1.6 nM. Two different 2× substrate solutions are made in enzyme reaction buffer. In one solution, PI(4,5)P2 (Echelon Biosciences, Salt Lake City, Utah) is diluted to 10 μM and ATP is diluted to 20 μM. This solution is used in the assays testing PI3Kα and PI3Kβ. In a second solution, PI(4,5)P2 is diluted to 10 μM and ATP is diluted to 80 μM. This solution is used in the assays testing PI3Kγ and PI3Kδ. The AlphaScreen® reaction solutions are made using beads from the anti-GST AlphaScreen® kit (PerkinElmer, Waltham, Mass.). Two solutions are made in Alphascreen reaction buffer to 4× working concentrations. In one solution, biotinylated-IP4 (Echelon Biosciences, Salt Lake City, Utah) is diluted to 40 nM and streptavadin-Donor Beads are diluted to 80 μg/mL. In the second solution, PIP3-binding protein (Echelon Biosciences, Salt Lake City, Utah) is diluted to 40 nM and anti-GST-Acceptor Beads are diluted to 80 μg/mL. 10 μL/well of enzyme reaction buffer is added to Column 24 of the assay ready plates in place of enzyme. This is done for plates in the PI3Kα, β, and δ assays. Using a 384-well dispensing Multidrop (Titertek, Huntsville, Ala.), 10 μL/well of 2× enzyme (PI3Kα, β, δ) is added to Columns 1-23 of the appropriate assay ready plates (for PI3Kγ 10 μL is added to Columns 1-24). 10 μL/well of the appropriate substrate solution (the solution with 20 μM ATP for PI3Kα and β assays, and the solution with […] for PI3Kγ and δ assays) is then added to Columns 1-24 of the plates. Plates are then incubated at room temperature for 20 minutes. In the dark, 10 μL/well of the Donor Bead solution is added to Columns 1-24 of the plates to quench the enzyme reaction. The plates are incubated at room temperature for 30 minutes. Still in the dark, 10 μL/well of the Acceptor Bead solution is also added to Columns 1-24 of the plates. The plates are then incubated in the dark for 1.5 hours.

[2] = target: mTOR (Homo sapiens, UniProt P42345); experiment: mTOR LanthaScreen (TR-FRET, phosphorylation of 4EBP1); assay type: biochemical; details: phosphorylation of GFP-4E-BP1, 10 μM ATP, 90 minutes
Protocol: The mTOR LanthaScreen is a TR-FRET assay measuring the phosphorylation of mTOR's substrate 4EBP1. 384 well compound plates were prepared containing 1 μl of compound per well starting at 5 mM and diluted 1:2 across the row, resulting in a 22 well serial dilution. 24 μl of assay buffer (Invitrogen, PV4794) with 2 mM DTT was added to the compound plate in rows 1-24 using the VELOCITY 11™ VPREP™ 384 ST resulting in a DMSO concentration of 4%. The compound plate was mixed and 2.5 μl of serially diluted compound or controls was added to the assay plate (Costar, 3658).
The assay was conducted on the PerkinElmer® FlexDrop PLUS. A 5 μl mix of 800 nM GFP-4E-BP1 (Invitrogen, PV4759) and 20 μM ATP (Amgen) was added to rows 1-24. 2.5 μl of 0.6 μg/ml of mTOR Enzyme (Amgen) was added to rows 1-23. 2.5 μl of assay buffer was added to row 24 for the low control. The final concentration of the compounds was 50 μM serially diluted to 23.84 pM in 1% DMSO. […] The final concentrations in the assay reagents were 400 nM GFP-4E-BP1, 10 μM of ATP and 0.15 μg/ml of mTOR enzyme. The compound, enzyme, and substrate were incubated for 90 minutes. At this point, 10 μl of stop solution was added (20 mM Tris, pH 7.5 (Invitrogen, 15567-027), 0.02% Sodium Azide (Teknova, S0208), 0.01% NP-40 (Roche, 11754599001), 20 mM EDTA (Invitrogen, 15575-038) and 4 nM of Tb-anti-p4E-BP1 (Invitrogen, PV4758)) for a final concentration of 2 nM of Tb-anti-p4E-BP1.
Sixty minutes later the plates were read on the PerkinElmer® EnVision™ 2103 Multilable Reader using the Excitation filter 340 nm and the Emission filters 520 nm and 495 nm.

[3] = tested on: phosphorylation of Akt at Serine 473 in U87 MG cells; experiment: pAkt AlphaScreen (U87 cell); assay type: cell-based; details: Homo sapiens, U-87 MG, 2 h; pAkt at Serine 473, U87 MG cells, two hours with compound
Protocol: The pAkt AlphaScreen® assay (PerkinElmer, Waltham, Mass.) determines whether there is phosphorylation of Akt at Serine 473 by recruitment of a phosphospecific antibody. This assay was performed using U87 MG cells. The U87 growth media consists of MEM (Gibco, Carlsbad, Calif.) supplemented with 10% FBS (Gibco), 1× Non-Essential Amino Acids (Gibco,) and 1× Penicillin/Streptomycin/Glutamine (Gibco). The cells were maintained weekly using 0.05% Trypsin (Gibco) and replated in 150 mm TC— Treated Culture Dishes (Corning, Corning, N.Y.).
The first day of the assay, the adherent cells were trypsinized, media was added to the loose cells and cells were mixed to a homogenous mixture. 0.5 ml of the homogenous mixture was counted on the Beckman Coulter® Vi-Cell™ XR (Fullerton, Calif.). 50 frames of cells were counted and the number of viable cells was determined. The cells were then diluted to 0.25 million cells per ml, and centrifuged at 200 rcf for 5 minutes. The media was removed and the cells were reconstituted in fresh media for plating. The cells were plated at 20 μl per well on the PerkinElmer® FlexDrop PLUS in Low Volume 384 Well White Tissue Culture Plates (Corning) with a final cell density of 5K cells per well. The plates were incubated overnight at 37° Celsius, 5% CO2.
On the second day, the compound plates were prepared, the cells were treated with compound and the pAkt reaction mix was added to the cell lysate. 384 well compound plates were prepared containing 1 μl of compound per well starting at 5 mM and diluted 1:2 across the row, resulting in a 22 well serial dilution. 39 μl of growth media was added to the compound plate in rows 1-22 using the PerkinElmer® FlexDrop PLUS resulting in a DMSO concentration of 2.5%. The cell plates and diluted compound plates were put onto the VELOCITY11™ VPREP™ 384 ST where the compound plate was mixed and 5 μl of serially diluted compound or controls was added to the cell plate. The final concentration of the compounds was 25 μM serially diluted to 11.9 pM in 0.5% DMSO.
The cell plates were then incubated with compound for two hours at 37° C., 5% CO2. After two hours, the media in the cell plates was aspirated using the BioTek® ELx405HT plate washer (Winooski, Vt.) removing the majority of media and compound without disturbing the adherent U87 cells. The following assay reagents are components of the SureFire® Akt (Ser 473) Phosphorylation 50K Point Kit (TGR BioSciences, Adelaide, Austalia) and an IgG Detection Kit (PerkinElmer, Waltham, Mass.). 5 μl of 1× Lysis Buffer was added to each well using the PerkinElmer® FlexDrop PLUS. The plates were then incubated at room temperature on a shaker for ten minutes. The AlphaScreen® reaction was prepared under low light conditions (subdued or green light) including p-Aid (Ser 473) Reaction Buffer, Dilution Buffer, Activation Buffer, Acceptor Beads and Donor Beads at a ratio of 40:20:10:1:1 respectively. The AlphaScreen® reaction was added to the cell lysate at 6 μl per well using the PerkinElmer® FlexDrop PLUS. The plates were placed in a humid environment to reduce edge effects and incubated overnight at room temperature with restricted air flow in the dark.
On the final day of the experiment, the plates were read on the PerkinElmer® EnVision™ 2103 Multilable Reader using the standard AlphaScreen® readout. The POC is calculated and the data is analyzed to report the IC50 IP for pAkt at Serine 473.
Activity data for the compounds tested in the PI3K cell based Akt assay is provided in Table 1 under the column heading U87

SMILES	IC50 [1] [nM]	IC50 [2] [nM]	IC50 [3] [nM]
Cc1nc(N)nc(-c2c(Nc3ccn(C(=O)NCCO)n3)nc3ccccn23)n1 [Cpd 198, 3-((3-(4-amino-6-methyl-1,3,5-triazin-2-yl)imidazo[1,2-a]pyridin-2-yl)amino)-N-(2-hydroxyethyl)-1H-pyrazole-1-carboxamide]	2210	110	–
Cc1nc(N)cc(-c2c(Nc3ccn(S(C)(=O)=O)n3)nc3ccccn23)n1 [Cpd 217, 3-(6-amino-2-methyl-4-pyrimidinyl)-N-(1-(methylsulfonyl)-1H-pyrazol-3-yl)imidazo[1,2-a]pyridin-2-amine]	–	1740	1180
Cc1nc(N)nc(-c2c(Nc3ccnn3C(=O)N3CCOCC3)nc3ccccn23)n1 [Cpd 201]	1390	250	–
CNCCNC(=O)n1ccc(Nc2nc3cccnn3c2-c2cc(N)nc(C)n2)n1 [Cpd 258]	30	500	–
